Laboratory results published in ChEMBL document CHEMBL3272194, “Antiinflammatory activity of some 2,3-dihydrobenzofuran-5-acetic acids and related compounds” (J Med Chem, 1976).

Legend:
Rattus norvegicus [1] = assay: Antiinflammatory activity in Wistar rat assessed as reduction in carrageenan-induced paw edema at 100 mg/kg, po treated 2 hrs before carrageenan challenge measured after 3 hrs; type: functional
Rattus norvegicus [2] = assay: Toxicity in po dosed Wistar rat assessed as gastric irritation at 20 to 100 mg/kg, po; type: organism-based, Stomach; parameters: dose 20-100 mg/kg, route oral; conditions: in vivo
Rattus norvegicus [3] = assay: Antiinflammatory activity in Wistar rat assessed as reduction in carrageenan-induced paw edema at 20 mg/kg, po treated 2 hrs before carrageenan challenge measured after 3 hrs; type: functional
Rattus norvegicus [4] = assay: Antiinflammatory activity in po dosed Wistar rat assessed as reduction in carrageenan-induced paw edema treated 2 hrs before carrageenan challenge measured after 3 hrs; type: functional
[5] = Toxicity in po dosed Wistar rat; type: organism-based; conditions: in vivo
Rattus norvegicus [6] = assay: Antiinflammatory activity in Wistar rat assessed as reduction in carrageenan-induced paw edema at 50 mg/kg, po treated 2 hrs before carrageenan challenge measured after 3 hrs; type: functional
Rattus norvegicus [7] = assay: Toxicity in po dosed Wistar rat assessed as gastric irritation at 10 to 50 mg/kg, po; type: organism-based, Stomach; parameters: dose 10-50 mg/kg, route oral; conditions: in vivo
Rattus norvegicus [8] = assay: Antiinflammatory activity in Wistar rat assessed as reduction in carrageenan-induced paw edema at 10 mg/kg, po treated 2 hrs before carrageenan challenge measured after 3 hrs; type: functional

Row | SMILES | inhibition in vivo at 100 mg/kg (Rattus norvegicus [1]) [%] | Activity (Rattus norvegicus [2]) | inhibition in vivo at 20 mg/kg (Rattus norvegicus [3]) [%] | ED50 (Rattus norvegicus [4]) [mg/kg] | LD50 [5] [mg/kg] | inhibition in vivo at 50 mg/kg (Rattus norvegicus [6]) [%] | Activity (Rattus norvegicus [7]) | inhibition in vivo at 10 mg/kg (Rattus norvegicus [8]) [%]
1 | CC1Cc2cc(CC(=O)O)cc(Cl)c2O1 (configuration not stated) | 27 | Toxic | 20 |  |  |  |  | 
2 | CC1Oc2c(Cl)cc(CC(=O)O)cc2C1C.NC1CCCCC1 (configuration not stated) | 30 | Toxic | 24 |  |  |  |  | 
3 | CC1(C)Cc2cc(CC(=O)O)cc(Cl)c2O1 | 37 | Toxic | 30 |  |  |  |  | 
4 | CC1(C)Cc2cc(CC(=O)O)ccc2O1 | 32 | Toxic | 25 |  |  |  |  | 
5 | CC1(C)Cc2cc(CC(=O)NO)cc(Cl)c2O1 | 13 | Toxic | 7 |  |  |  |  | 
6 | CC1(C)Cc2cc(CC(=O)NO)ccc2O1 | 9 | Toxic | 5 |  |  |  |  | 
7 | CC1(C)Cc2cc(CC(N)=O)cc(Cl)c2O1 | 31 | Toxic | 25 |  |  |  |  | 
8 | CC1(C)Cc2cc(CC(N)=O)ccc2O1 | 20 | Toxic | 15 |  |  |  |  | 
9 | CC1Cc2cc(CC(N)=O)cc(Cl)c2O1 (configuration not stated) | 17 | Toxic | 2 |  |  |  |  | 
10 | CC(C(=O)O)c1cc(Cl)c2c(c1)CC(C)(C)O2 (configuration not stated) | 58 | Toxic | 45 | 45 | 720 |  |  | 
11 | CC1Cc2cc(C(C)C(=O)O)cc(Cl)c2O1.NC1CCCCC1 (configuration not stated) | 57 | Toxic | 35 |  |  |  |  | 
12 | CC1(C)Cc2cc(C(=O)/C=C/C(=O)O)cc(Cl)c2O1 | 3 | Toxic | 9 |  |  |  |  | 
13 | CC1(C)Cc2cc(C(=O)CCC(=O)O)cc(Cl)c2O1 | 37 | Toxic | 24 |  |  |  |  | 
14 | CC1(C)Cc2cc(CCCC(=O)O)cc(Cl)c2O1 | 32 | Toxic | 32 |  |  |  |  | 
15 | CCCCC1C(=O)N(c2ccccc2)N(c2ccccc2)C1=O [PHENYLBUTAZONE] |  |  |  |  |  | 51 | Toxic | 24
